Measurements: ChEMBL document CHEMBL1201862, “PubChem BioAssay data set” (2004)
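These data come from cells grown in 96-well plates and exposed to compound for 48 hours at five concentrations. At the GI50, growth is halved.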 Calls of active or inactive are those of the source. Rule as the data show it: active = GI50 up to about 1.1 µM and inactive = higher.

Key:
Test in all cases: inhibition of tumour cell growth, NCI panel, 48 h
786-0 = test system: 786-0
A549 = test system: A549
ACHN = test system: ACHN
BT-549 = test system: BT-549
CAKI-1 = test system: CAKI-1
CCRF-CEM = test system: CCRF-CEM
COLO 205 = test system: COLO 205
DU-145 = test system: DU-145
EKVX = test system: EKVX
HCC 2998 = test system: HCC 2998
HCT-116 = test system: HCT-116
HCT-15 = test system: HCT-15
HL-60 = test system: HL-60
HOP-62 = test system: HOP-62
HT-29 = test system: HT-29
IGROV-1 = test system: IGROV-1
K562 = test system: K562
KM12 = test system: KM12
M14 = test system: M14
MCF7 = test system: MCF7
MDA-N = test system: MDA-N
MOLT-4 = test system: MOLT-4
Malme-3M = test system: Malme-3M
NCI-H226 = test system: NCI-H226
NCI-H23 = test system: NCI-H23
NCI-H460 = test system: NCI-H460
NCI-H522 = test system: NCI-H522
NCI/ADR-RES = test system: NCI/ADR-RES
OVCAR-3 = test system: OVCAR-3
OVCAR-4 = test system: OVCAR-4
OVCAR-5 = test system: OVCAR-5
OVCAR-8 = test system: OVCAR-8
PC-3 = test system: PC-3
RPMI-8226 = test system: RPMI-8226
RXF 393 = test system: RXF 393
SF-268 = test system: SF-268
SF-295 = test system: SF-295
SF-539 = test system: SF-539
SK-MEL-28 = test system: SK-MEL-28
SK-MEL-2 = test system: SK-MEL-2
SK-MEL-5 = test system: SK-MEL-5
SK-OV-3 = test system: SK-OV-3
SN12C = test system: SN12C
SNB-19 = test system: SNB-19
SNB-75 = test system: SNB-75
SR = test system: SR
SW-620 = test system: SW-620
TK-10 = test system: TK-10
U-251 = test system: U-251
UACC-257 = test system: UACC-257
UACC-62 = test system: UACC-62
UO-31 = test system: UO-31
A498 = test system: A498
HOP-92 = test system: HOP-92
Hs-578T = test system: Hs-578T
LOX IMVI = test system: LOX IMVI
MDA-MB-231 = test system: MDA-MB-231
MDA-MB-435 = test system: MDA-MB-435
T47D = test system: T47D

With `N#C/C(=C\c1cc(Br)c(O)c(Br)c1)c1cccnc1` the GI50 (786-0) was 10.1 µM (inactive), the GI50 (A549) was 34.2 µM (inactive) and the GI50 (ACHN) was 36.3 µM (inactive). For the same compound, the GI50 (BT-549) was 22.5 µM (inactive), the GI50 (CAKI-1) was 35.7 µM (inactive) and the GI50 (CCRF-CEM) was 18.2 µM (inactive). The GI50 (COLO 205) was 22.8 µM (inactive), the GI50 (DU-145) was > 100 µM (inactive) and the GI50 (EKVX) was 19.1 µM (inactive). For the same compound, the GI50 (HCC 2998) was 36.1 µM (inactive), the GI50 (HCT-116) was > 100 µM (inactive) and the GI50 (HCT-15) was 17.7 µM. For the same compound, the GI50 (HL-60) was 27 µM (inactive), the GI50 (HOP-62) was 32.8 µM (inactive) and the GI50 (HT-29) was 34.9 µM (inactive). The GI50 (IGROV-1) was 52.8 µM (inactive), the GI50 (K562) was 23.6 µM (inactive) and the GI50 (KM12) was 27.2 µM (inactive). The GI50 (M14) was 26.1 µM (inactive), the GI50 (MCF7) was 33 µM (inactive) and the GI50 (MDA-N) was > 100 µM (inactive). For the same compound, the GI50 (MOLT-4) was 23.9 µM (inactive), the GI50 (Malme-3M) was 17.2 µM (inactive) and the GI50 (NCI-H226) was 21.5 µM (inactive). For the same compound, the GI50 (NCI-H23) was 21 µM (inactive), the GI50 (NCI-H460) was 32.5 µM (inactive) and the GI50 (NCI-H522) was 30.6 µM (inactive). For the same compound, the GI50 (NCI/ADR-RES) was 24 µM (inactive), the GI50 (OVCAR-3) was 21 µM (inactive) and the GI50 (OVCAR-4) was 33.3 µM (inactive). For the same compound, the GI50 (OVCAR-5) was 41.6 µM (inactive), the GI50 (OVCAR-8) was 35.6 µM (inactive) and the GI50 (PC-3) was 22 µM (inactive). The GI50 (RPMI-8226) was 21.6 µM (inactive), the GI50 (RXF 393) was 41.3 µM (inactive) and the GI50 (SF-268) was 33.4 µM (inactive). For the same compound, the GI50 (SF-295) was 18.5 µM (inactive), the GI50 (SF-539) was 26.2 µM (inactive) and the GI50 (SK-MEL-28) was 27.6 µM (inactive). The GI50 (SK-MEL-2) was 19.3 µM (inactive), the GI50 (SK-MEL-5) was > 10 µM (inactive) and the GI50 (SK-OV-3) was 42.2 µM (inactive). For the same compound, the GI50 (SN12C) was 34.7 µM (inactive), the GI50 (SNB-19) was 39.1 µM (inactive) and the GI50 (SNB-75) was 75 µM (inactive). For the same compound, the GI50 (SR) was 31.3 µM (inactive), the GI50 (SW-620) was 28.8 µM (inactive) and the GI50 (TK-10) was 27.4 µM (inactive). The GI50 (U-251) was 16.7 µM (inactive), the GI50 (UACC-257) was 23.6 µM (inactive) and the GI50 (UACC-62) was 43.8 µM (inactive). The GI50 (UO-31) was 22.1 µM (inactive).

`O=c1c(C(c2ccc3ccccc3c2)c2c(O)oc3cc(O)ccc3c2=O)c(O)oc2cc(O)ccc12` was tested, and the GI50 (786-0) was > 100 µM (inactive), the GI50 (A498) was > 100 µM (inactive) and the GI50 (A549) was > 100 µM (inactive). For the same compound, the GI50 (BT-549) was 54.2 µM (inactive), the GI50 (CAKI-1) was > 100 µM (inactive) and the GI50 (CCRF-CEM) was 43.2 µM (inactive). The GI50 (COLO 205) was > 100 µM (inactive), the GI50 (DU-145) was > 100 µM (inactive) and the GI50 (EKVX) was > 100 µM (inactive). For the same compound, the GI50 (HCC 2998) was > 100 µM (inactive), the GI50 (HCT-116) was > 100 µM (inactive) and the GI50 (HCT-15) was over 100 µM. The GI50 (HL-60) was 38.5 µM (inactive), the GI50 (HOP-62) was > 100 µM (inactive) and the GI50 (HOP-92) was 75 µM (inactive). For the same compound, the GI50 (HT-29) was > 100 µM (inactive), the GI50 (Hs-578T) was 21.3 µM (inactive) and the GI50 (IGROV-1) was > 100 µM (inactive). For the same compound, the GI50 (K562) was 30.5 µM (inactive), the GI50 (KM12) was 30.6 µM (inactive) and the GI50 (LOX IMVI) was 32.7 µM (inactive). The GI50 (M14) was > 100 µM (inactive), the GI50 (MCF7) was 43.2 µM (inactive) and the GI50 (MDA-MB-231) was > 100 µM (inactive). For the same compound, the GI50 (MDA-MB-435) was 46 µM (inactive), the GI50 (MOLT-4) was 44.4 µM (inactive) and the GI50 (NCI-H226) was > 100 µM (inactive). For the same compound, the GI50 (NCI-H23) was > 100 µM (inactive), the GI50 (NCI-H460) was 41.3 µM (inactive) and the GI50 (NCI-H522) was 50.8 µM (inactive). The GI50 (NCI/ADR-RES) was > 100 µM (inactive), the GI50 (OVCAR-3) was 80 µM (inactive) and the GI50 (OVCAR-5) was > 100 µM (inactive). The GI50 (OVCAR-8) was 71 µM (inactive), the GI50 (PC-3) was > 100 µM (inactive) and the GI50 (RPMI-8226) was 27.5 µM (inactive). For the same compound, the GI50 (RXF 393) was 88.5 µM (inactive), the GI50 (SF-268) was 15.9 µM (inactive) and the GI50 (SF-295) was > 100 µM (inactive). The GI50 (SF-539) was 84.1 µM (inactive), the GI50 (SK-MEL-28) was > 100 µM (inactive) and the GI50 (SK-MEL-2) was > 100 µM (inactive). For the same compound, the GI50 (SK-MEL-5) was > 100 µM (inactive), the GI50 (SK-OV-3) was > 100 µM (inactive) and the GI50 (SN12C) was > 100 µM (inactive). For the same compound, the GI50 (SNB-19) was 11.2 µM (inactive), the GI50 (SNB-75) was 17.5 µM (inactive) and the GI50 (SR) was 26.6 µM (inactive). The GI50 (SW-620) was > 100 µM (inactive), the GI50 (T47D) was > 100 µM (inactive) and the GI50 (TK-10) was > 100 µM (inactive). For the same compound, the GI50 (U-251) was 41.5 µM (inactive), the GI50 (UACC-257) was > 100 µM (inactive) and the GI50 (UACC-62) was > 100 µM (inactive). For the same compound, the GI50 (UO-31) was 5.22 µM (inactive).
